Data: PMC11513923, “Discovery of ZLC491 as a Potent, Selective, and Orally Bioavailable CDK12/13 PROTAC Degrader” (Journal of Medicinal Chemistry, 2024)

Key:
NME2 = experiment: TMT-labeled quantitative proteomics in MDA-MB-231 cells; type: cell-based, Homo sapiens; conditions: 2 μM ZLC491 vs DMSO, 8 h
Procedure: (§1) Figure 5 ZLC491 degraded CDK12/13 with high selectivity. (A) Global proteomic analysis of ZLC491 in MDA-MB-231 cells after 8 h treatment of DMSO or 2 μM ZLC491; (B) mass-spec quantification of CDKs changes; (C) immunoblotting of target protein degradation in samples for proteomic analysis.
(§2) MDA-MB-231 cells were seeded at 8 × 10^5 cells in 6 cm dishes 24 h before treating with 2 μM ZLC491 or DMSO in quadruplicate or triplicate for 8 h. Cell lysates were prepared by washing cells twice with cold PBS and adding 180 μL lysis buffer (10 mM HEPES, pH 7.0, 1% (w/v) SDS, 2 mM MgCl·6H2O supplemented with 0.1% BeyoZonase (Beyotime)) per dish. Samples were quantified using a micro-BCA protein assay kit (Thermo Fisher Scientific) and 600 μg of each sample was processed and digested using the filter aided sample preparation (FASP) method followed by alkylation with iodoacetamide and digestion with trypsin. The samples were then desalted using Oasis HLB C18 SPE cartridge column (Waters, WAT094225). The peptides were lyophilized and reconstituted, then 25 μg peptides of each sample were labeled with TMT 11-plex Isobaric Label Reagent Set (Thermo Fisher Scientific) as the manufacturer’s instructions. After labeling, the peptides from the 11 samples were pooled together. The pooled TMT 11-plex sample was fractionated using high pH reverse-phase chromatography on an XBridge peptide BEH column (130 Å, 3.5 μm, 2.1 × 150 mm, Waters) on an Ultimate 3000 HPLC system (Thermo Scientific/Dionex). […]
(§3) The fractions were analyzed sequentially on an Orbitrap Fusion Lumos Mass Spectrometer (Thermo Scientific) coupled to a NanoLC-1200 UHPLC system (Thermo Scientific) with C18 capillary column. […] MS3 precursor were fragmented by HCD and analyzed with Orbitrap at NCE 65, AGC 1E5, resolution 60000.
(§4) The raw MS data files for all 11 fractions were searched against the Uniprot-Human-Canonical database by Proteome Discoverer 2.0 for protein identification and TMT reporter ion quantitation. […]

ARG2 = experiment: as above; type: cell-based, Homo sapiens; conditions: 2 μM ZLC491 vs DMSO, 8 h
Procedure: as §1, §2, §3, §4

B3GAT3 = experiment: as above; type: cell-based, Homo sapiens; conditions: 2 μM ZLC491 vs DMSO, 8 h
Procedure: as §1, §2, §3, §4

CDK13 = molecular target: T1, CDK13 (Homo sapiens, UniProt Q14004); experiment: CDK13 degradation in MDA-MB-231 cells by immunoblotting; type: cell-based;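 as to Protein Degradation (%DMSO control, 0.3 μM) CDK13: percent of CDK13 protein degraded relative to DMSO control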
T1 construct: Immunoblotting of CDK12 and CDK13 in MDA-MB-231 cells treated with increasing concentrations of ZLC491 for 15 h; endogenous in cells; host or cells: MDA-MB-231
T1 sequence (Q14004 whole entry): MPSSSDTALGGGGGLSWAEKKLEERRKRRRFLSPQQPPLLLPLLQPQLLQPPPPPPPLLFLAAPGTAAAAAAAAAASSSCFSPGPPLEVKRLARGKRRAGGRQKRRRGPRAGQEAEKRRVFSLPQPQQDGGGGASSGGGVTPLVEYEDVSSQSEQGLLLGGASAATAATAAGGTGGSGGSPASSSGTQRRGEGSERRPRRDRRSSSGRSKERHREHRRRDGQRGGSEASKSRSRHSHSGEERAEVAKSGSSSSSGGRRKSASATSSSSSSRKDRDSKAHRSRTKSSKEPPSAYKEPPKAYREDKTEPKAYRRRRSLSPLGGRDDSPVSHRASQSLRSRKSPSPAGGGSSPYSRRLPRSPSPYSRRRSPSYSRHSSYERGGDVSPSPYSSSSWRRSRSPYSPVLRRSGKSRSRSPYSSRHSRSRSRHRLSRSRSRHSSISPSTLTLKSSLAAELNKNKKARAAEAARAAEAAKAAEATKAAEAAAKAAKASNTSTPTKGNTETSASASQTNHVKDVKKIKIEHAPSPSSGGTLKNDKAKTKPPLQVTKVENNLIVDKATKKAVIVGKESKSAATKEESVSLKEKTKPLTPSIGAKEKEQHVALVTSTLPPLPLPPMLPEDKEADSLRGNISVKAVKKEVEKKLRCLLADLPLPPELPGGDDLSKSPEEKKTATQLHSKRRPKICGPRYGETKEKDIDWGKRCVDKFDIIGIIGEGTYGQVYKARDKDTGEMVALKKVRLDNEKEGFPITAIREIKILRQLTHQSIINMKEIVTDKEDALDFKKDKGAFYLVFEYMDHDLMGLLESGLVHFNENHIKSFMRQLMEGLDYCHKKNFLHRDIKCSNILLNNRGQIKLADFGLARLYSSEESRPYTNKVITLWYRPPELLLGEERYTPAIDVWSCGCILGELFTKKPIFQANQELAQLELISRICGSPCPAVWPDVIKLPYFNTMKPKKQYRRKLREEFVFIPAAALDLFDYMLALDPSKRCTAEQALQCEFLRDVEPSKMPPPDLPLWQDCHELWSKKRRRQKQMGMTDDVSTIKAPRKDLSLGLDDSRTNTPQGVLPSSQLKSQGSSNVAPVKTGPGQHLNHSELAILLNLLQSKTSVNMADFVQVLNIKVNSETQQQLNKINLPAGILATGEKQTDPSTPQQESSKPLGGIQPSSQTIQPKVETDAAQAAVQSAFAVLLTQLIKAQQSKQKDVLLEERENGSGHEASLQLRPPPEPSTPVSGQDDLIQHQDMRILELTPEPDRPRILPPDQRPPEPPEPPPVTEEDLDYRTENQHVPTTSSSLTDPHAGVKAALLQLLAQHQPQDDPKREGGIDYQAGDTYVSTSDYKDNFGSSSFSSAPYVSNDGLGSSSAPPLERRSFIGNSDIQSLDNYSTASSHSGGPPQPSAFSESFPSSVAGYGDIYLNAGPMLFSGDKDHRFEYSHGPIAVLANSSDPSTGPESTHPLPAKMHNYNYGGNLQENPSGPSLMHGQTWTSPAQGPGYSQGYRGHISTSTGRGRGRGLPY
T1 sequence (O75909 whole entry partner): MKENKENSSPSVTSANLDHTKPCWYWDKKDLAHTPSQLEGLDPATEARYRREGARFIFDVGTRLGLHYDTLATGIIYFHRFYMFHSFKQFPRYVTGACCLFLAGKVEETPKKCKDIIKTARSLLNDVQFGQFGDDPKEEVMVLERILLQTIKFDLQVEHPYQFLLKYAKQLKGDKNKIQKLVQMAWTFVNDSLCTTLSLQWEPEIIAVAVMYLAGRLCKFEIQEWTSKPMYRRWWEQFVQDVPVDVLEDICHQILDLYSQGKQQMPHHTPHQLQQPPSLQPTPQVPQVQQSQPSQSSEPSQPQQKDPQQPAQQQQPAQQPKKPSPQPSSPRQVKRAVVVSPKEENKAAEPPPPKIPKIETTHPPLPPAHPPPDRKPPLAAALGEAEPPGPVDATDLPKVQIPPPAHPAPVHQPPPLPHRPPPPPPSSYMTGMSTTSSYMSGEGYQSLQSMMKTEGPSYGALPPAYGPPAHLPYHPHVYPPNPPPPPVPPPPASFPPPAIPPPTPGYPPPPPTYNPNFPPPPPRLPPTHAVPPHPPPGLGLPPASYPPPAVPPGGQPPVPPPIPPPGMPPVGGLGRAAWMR
In short: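 MDA-MB-231 cells treated with ZLC491 at increasing concentrations for 15 h (screening at 0.3 μM; time course at 1 μM); SDS lysates immunoblotted, band intensities normalised to α-tubulin. DC50 taken from percent remaining protein versus concentration; representative of three independent experiments.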

N#Cc1ccc(N[C@H]2CC[C@H](N(C(=O)NCc3ccccc3)c3ccc(N4CCN(C5CCN(c6cc7c(cc6F)C(=O)N(C6CCC(=O)NC6=O)C7=O)CC5)CC4)cc3)CC2)nc1 (stereo partly shown) [ZLC491, 3-Benzyl-1-((1r,4r)-4-((5-cyanopyridin-2-yl)amino)cyclohexyl)-1-(4-(4-(1-(2-(2,6-dioxopiperidin-3-yl)-6-fluoro-1,3-dioxoisoindolin-5-yl)piperidin-4-yl)piperazin-1-yl)phenyl)urea]
FC_4-91 (NME2) (NME2): 1.1277 | FC_4-91 (ARG2) (ARG2): 1.14 | FC_4-91 (B3GAT3) (B3GAT3): 1.982 | CDK13 degradation, immunoblotting of the proteomic samples (CDK13; 2 μM, 8 h, MDA-MB-231): significantly degraded | Protein Degradation (%DMSO control, 0.3 μM) CDK13 (CDK13; MDA-MB-231 cells, 0.3 μM, 15 h, immunoblotting, normalized against α-tubulin): 90% | DC50 (CDK13; MDA-MB-231 cells, 15 h): 0.028 µM | Degradation rates of CDK13 at 0.3 μM (CDK13; supplementary CSV, 0.3 μM): 90%
